Laboratory results: patent US20220119354A1, “DIAMINO-SUBSTITUTED PYRIDINES AND PYRIMIDINES AS HERBICIDES” (FMC Corporation, priority 2019, published 2022)

Key:
Format in all cases: in vivo
[1] = system: barnyardgrass (Echinochloa crus-galli); assay: Test A preemergence, barnyardgrass; conditions: 0 to 100 scale, 0 is no effect, 100 is complete control
Procedure, shortened: (§1)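 Visual injury scores (0 no effect to 100 complete control) were assigned about 10 d after treatment by comparison with untreated controls. Test chemicals, formulated in a surfactant-containing non-phytotoxic solvent, were applied to soil at planting or to plants at the one- to two-leaf stage.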

kochia (Kochia scoparia) [2] = assay: Test A preemergence, kochia; conditions: 0 to 100 scale, 0 is no effect, 100 is complete control
Procedure, shortened: as §1

[3] = system: ragweed (common ragweed, Ambrosia elatior); assay: Test A preemergence, ragweed; conditions: 0 to 100 scale, 0 is no effect, 100 is complete control
Procedure, shortened: as §1

[4] = system: ryegrass, Italian (Lolium multiflorum); assay: Test A preemergence, Italian ryegrass; conditions: 0 to 100 scale, 0 is no effect, 100 is complete control
Procedure, shortened: as §1

[5] = system: foxtail, giant (Setaria faberii); assay: Test A preemergence, giant foxtail; conditions: 0 to 100 scale, 0 is no effect, 100 is complete control
Procedure, shortened: as §1

[6] = system: pigweed (Amaranthus retroflexus); assay: Test A preemergence, pigweed; conditions: 0 to 100 scale, 0 is no effect, 100 is complete control
Procedure, shortened: as §1

[7] = system: barnyardgrass (Echinochloa crus-galli); assay: Test A postemergence, barnyardgrass; conditions: 0 to 100 scale, 0 no effect, 100 complete control
Procedure, shortened: as §1

kochia (Kochia scoparia) [8] = assay: Test A postemergence, kochia; conditions: 0 to 100 scale, 0 no effect, 100 complete control
Procedure, shortened: as §1

[9] = system: ragweed (common ragweed, Ambrosia elatior); assay: Test A postemergence, ragweed; conditions: 0 to 100 scale, 0 no effect, 100 complete control
Procedure, shortened: as §1

[10] = system: ryegrass, Italian (Lolium multiflorum); assay: Test A postemergence, Italian ryegrass; conditions: 0 to 100 scale, 0 no effect, 100 complete control
Procedure, shortened: as §1

[11] = system: foxtail, giant (Setaria faberii); assay: Test A postemergence, giant foxtail; conditions: 0 to 100 scale, 0 no effect, 100 complete control
Procedure, shortened: as §1

[12] = system: pigweed (Amaranthus retroflexus); assay: Test A postemergence, pigweed; conditions: 0 to 100 scale, 0 no effect, 100 complete control
Procedure, shortened: as §1

[13] = system: wheat (Triticum aestivum); assay: Test A postemergence, wheat; conditions: 0 to 100 scale, 0 no effect, 100 complete control
Procedure, shortened: as §1

corn (Zea mays) = assay: Test A postemergence, corn; conditions: 0 to 100 scale, 0 no effect, 100 complete control
Procedure, shortened: as §1

[14] = system: blackgrass (Alopecurus myosuroides); assay: Test A postemergence, blackgrass; conditions: 0 to 100 scale, 0 no effect, 100 complete control
Procedure, shortened: as §1

[15] = system: galium (catchweed bedstraw, Galium aparine); assay: Test A postemergence, galium; conditions: 0 to 100 scale, 0 no effect, 100 complete control
Procedure, shortened: as §1

rice (Oryza sativa) = assay: Test B flooded paddy test, rice; conditions: Flood, 250 g ai/ha, applied to paddy water, 2-leaf stage, visual evaluation after 13 to 15 d
Procedure, shortened: (§2)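 Application was made into paddy water of pots flooded 3 cm deep at treatment, with seedlings at the 2-leaf stage. That flood level was kept throughout, and plants stayed under glass 13 to 15 d before visual assessment on a 0–100 control scale.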

[16] = system: sedge, umbrella (small-flower umbrella sedge, Cyperus difformis); assay: Test B flooded paddy test, umbrella sedge; conditions: Flood, 250 g ai/ha, applied to paddy water, 2-leaf stage, visual evaluation after 13 to 15 d
Procedure, shortened: as §2

[17] = system: ducksalad (Heteranthera limosa); assay: Test B flooded paddy test, ducksalad; conditions: Flood, 250 g ai/ha, applied to paddy water, 2-leaf stage, visual evaluation after 13 to 15 d
Procedure, shortened: as §2

[18] = system: barnyardgrass (Echinochloa crus-galli); assay: Test B flooded paddy test, barnyardgrass; conditions: Flood, 250 g ai/ha, applied to paddy water, 2-leaf stage, visual evaluation after 13 to 15 d
Procedure, shortened: as §2

Structure (SMILES) | Barnyardgrass plant response rating ([1]; 125 g ai/ha) | Kochia plant response rating (kochia (Kochia scoparia) [2]; 125 g ai/ha) | Ragweed plant response rating ([3]; 125 g ai/ha) | Ryegrass, Italian plant response rating ([4]; 125 g ai/ha) | Foxtail, Giant plant response rating ([5]; 125 g ai/ha) | Pigweed plant response rating ([6]; 125 g ai/ha) | Plant response rating, Barnyardgrass ([7]; 125 g ai/ha) | Plant response rating, Kochia (kochia (Kochia scoparia) [8]; 125 g ai/ha) | Plant response rating, Ragweed ([9]; 125 g ai/ha) | Plant response rating, Ryegrass, Italian ([10]; 125 g ai/ha) | Plant response rating, Foxtail, Giant ([11]; 125 g ai/ha) | Plant response rating, Pigweed ([12]; 125 g ai/ha) | Plant response rating, Wheat ([13]; 125 g ai/ha) | Plant response rating, Corn (corn (Zea mays); 125 g ai/ha) | Plant response rating, Blackgrass ([14]; 125 g ai/ha) | Plant response rating, Galium ([15]; 125 g ai/ha) | Plant response rating, Rice (0 to 100 scale, 0 is no effect, 100 is complete control) (rice (Oryza sativa)) | Plant response rating, Sedge, Umbrella (0 to 100 scale, 0 is no effect, 100 is complete control) [16] | Plant response rating, Ducksalad (0 to 100 scale, 0 is no effect, 100 is complete control) [17] | Plant response rating, Barnyardgrass (0 to 100 scale, 0 is no effect, 100 is complete control) [18] | further results
CC(Nc1ncc(S(C)(=O)=O)c(N)n1)c1cc2ccccc2s1 (stereo not drawn) [Compound 107] | 20 | 80 | 100 | 50 | 30 | 60 | 20 | 50 | 40 | 0 | 10 | 80 | 0 | 0 | 0 | 70 | 0 | 75 | 70 | 45 | Barnyardgrass plant response rating ([1]; 500 g ai/ha): 100; Kochia plant response rating (kochia (Kochia scoparia) [2]; 500 g ai/ha): 100; Ragweed plant response rating ([3]; 500 g ai/ha): 100; Ryegrass, Italian plant response rating ([4]; 500 g ai/ha): 90; Foxtail, Giant plant response rating ([5]; 500 g ai/ha): 100; Pigweed plant response rating ([6]; 500 g ai/ha): 100; Plant response rating, Barnyardgrass ([7]; 500 g ai/ha): 100; Plant response rating, Kochia (kochia (Kochia scoparia) [8]; 500 g ai/ha): 90; Plant response rating, Ragweed ([9]; 500 g ai/ha): 100; Plant response rating, Ryegrass, Italian ([10]; 500 g ai/ha): 40; Plant response rating, Foxtail, Giant ([11]; 500 g ai/ha): 60; Plant response rating, Pigweed ([12]; 500 g ai/ha): 100; Plant response rating, Wheat ([13]; 500 g ai/ha): 30; Plant response rating, Corn (corn (Zea mays); 500 g ai/ha): 30; Plant response rating, Blackgrass ([14]; 500 g ai/ha): 80; Plant response rating, Galium ([15]; 500 g ai/ha): 80
CC(F)c1nc(N[C@H](C)c2cc3ccccc3s2)nc(N)c1C(F)(F)F (stereo partly drawn) [Compound 108] | 30 | 90 | 70 | 30 | 30 | 90 | 0 | 70 | 50 | 50 | 20 | 90 | 0 | 10 | 0 | 70 | 0 | 75 | 30 | 35 | Barnyardgrass plant response rating ([1]; 31 g ai/ha): 40; Kochia plant response rating (kochia (Kochia scoparia) [2]; 31 g ai/ha): 90; Ragweed plant response rating ([3]; 31 g ai/ha): 50; Ryegrass, Italian plant response rating ([4]; 31 g ai/ha): 0; Foxtail, Giant plant response rating ([5]; 31 g ai/ha): 30; Pigweed plant response rating ([6]; 31 g ai/ha): 70; Plant response rating, Barnyardgrass ([7]; 31 g ai/ha): 20; Plant response rating, Kochia (kochia (Kochia scoparia) [8]; 31 g ai/ha): 40; Plant response rating, Ragweed ([9]; 31 g ai/ha): 30; Plant response rating, Ryegrass, Italian ([10]; 31 g ai/ha): 0; Plant response rating, Foxtail, Giant ([11]; 31 g ai/ha): 0; Plant response rating, Pigweed ([12]; 31 g ai/ha): 70; Plant response rating, Wheat ([13]; 31 g ai/ha): 0; Plant response rating, Corn (corn (Zea mays); 31 g ai/ha): 0; Plant response rating, Blackgrass ([14]; 31 g ai/ha): 0; Plant response rating, Galium ([15]; 31 g ai/ha): 50
